Experiments:
Assay type in all cases: functional
Conditions in all cases: route subcutaneous
Rattus norvegicus [1] = assay: Anti-inflammatory activity in Rattus norvegicus albino (rat) assessed as reduction in carrageenan-induced paw volume at 5 mg/kg, sc pretreated 2 hr before carrageenan challenge measured after 1 hr by plethysmometer (reference value: 1.95 +/- 0.03 to 2 ml)
Rattus norvegicus [2] = assay: Anti-inflammatory activity in Rattus norvegicus albino (rat) assessed as reduction in carrageenan-induced paw volume at 5 mg/kg, sc pretreated 1 hr before carrageenan challenge measured after 1 hr by plethysmometer (reference value: 1.95 +/- 0.03 to 2 ml)
Rattus norvegicus [3] = assay: Anti-inflammatory activity in Rattus norvegicus albino (rat) assessed as reduction in carrageenan-induced paw volume at 5 mg/kg, sc pretreated 4 hr before carrageenan challenge measured after 1 hr by plethysmometer (reference value: 1.95 +/- 0.03 to 2 ml)
Rattus norvegicus [4] = assay: Anti-inflammatory activity in Rattus norvegicus albino (rat) assessed as reduction in carrageenan-induced paw volume at 5 mg/kg, sc pretreated 3 hr before carrageenan challenge measured after 1 hr by plethysmometer (reference value: 1.95 +/- 0.03 to 2 ml)

SMILES | Activity (Rattus norvegicus [1]) [mL] | Activity (Rattus norvegicus [2]) [mL] | Activity (Rattus norvegicus [3]) [mL] | Activity (Rattus norvegicus [4]) [mL]
O=c1ccc(-c2nc3ccccc3nc2-c2ccccc2)n[nH]1 | 1.37 | 1.97 | 0.38 | 1
O=c1ccc(-c2nc3ccccc3nc2-c2ccc(Cl)cc2)n[nH]1 | 0.95 | 1.48 | 0.03 | 0.55
COc1ccc(-c2nc3ccccc3nc2-c2ccc(=O)[nH]n2)cc1 | 1.5 | 1.55 | 1.27 | 1.38
O=c1ccc(C2Nc3ccccc3NC2c2ccccc2)n[nH]1 (stereo not drawn) | 2.02 | 2 | 2.07 | 2
O=c1ccc(C2Nc3ccccc3NC2c2ccc(Cl)cc2)n[nH]1 (stereo not drawn) | 1.93 | 1.93 | 2.12 | 2
COc1ccc(C2Nc3ccccc3NC2c2ccc(=O)[nH]n2)cc1 (stereo not drawn) | 1.42 | 1.58 | 1.32 | 1.38
O=C(O)Cc1ccccc1Nc1c(Cl)cccc1Cl [DICLOFENAC] | 0.57 | 0.92 | 0.03 | 0.3

From ChEMBL document CHEMBL3044725, “Structure-based molecular design, synthesis, and in vivo anti-inflammatory activity of pyridazinone derivatives as nonclassic COX-2 inhibitors” (2010)
